# Source: article PMC7619385 (ACS infectious diseases, 2025)
# Where two headings read alike, the source gives them in different places.
# Columns and labels:
# LmxCLK1 = molecular target: T1, LmxCLK1 (Leishmania mexicana, UniProt E9AMP2); assay: biochemical; assay type: binding
# T1 sequence (E9AMP2 1-422): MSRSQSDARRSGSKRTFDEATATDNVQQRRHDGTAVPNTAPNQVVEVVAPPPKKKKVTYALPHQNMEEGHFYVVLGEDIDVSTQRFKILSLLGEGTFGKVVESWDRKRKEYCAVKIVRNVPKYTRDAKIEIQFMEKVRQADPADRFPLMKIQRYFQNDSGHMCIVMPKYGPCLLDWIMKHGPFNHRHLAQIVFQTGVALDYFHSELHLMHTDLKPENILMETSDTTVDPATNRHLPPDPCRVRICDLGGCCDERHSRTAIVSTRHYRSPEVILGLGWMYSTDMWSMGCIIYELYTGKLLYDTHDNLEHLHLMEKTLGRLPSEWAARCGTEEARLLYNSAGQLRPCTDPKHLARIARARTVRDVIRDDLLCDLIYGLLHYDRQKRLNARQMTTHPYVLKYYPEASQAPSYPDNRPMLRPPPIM
# NLuc::LmxCLK1 = NLuc::LmxCLK1 (Leishmania mexicana, UniProt E9AMP2); assay: cell-based; assay type: cell-based; conditions: for Target occupancy Run 1 / Target occupancy Run 2 / Target occupancy Average: 10 µM compound, tracer SV366, promastigotes; for Target occupancy Average: mean of two experiments
# Procedure, shortened: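 NanoBRET tracer displacement in live cells expressing NLuc-tagged CLK1, test compounds at 10 µM fixed, 1% DMSO final. Acceptor/donor emission (610/460 nm) ratio gives mBRET, converted to blank-corrected probe occupancy (%); probe KD from single-site saturation binding fits.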
# [1] = DSF, 10 µM compound, 2 µM LmxCLK1, Run 1
# [2] = DSF, 10 µM compound, 2 µM LmxCLK1, Run 2
# [3] = DSF, 10 µM compound, 2 µM LmxCLK1, mean of two runs
# [4] = DSF, 10 µM compound, 2 µM LmxCLK1, Run 1, read-out: ΔTm Run 1
# [5] = DSF, 10 µM compound, 2 µM LmxCLK1, Run 2, read-out: ΔTm Run 2
# [6] = DSF, 10 µM compound, 2 µM LmxCLK1, mean of two runs, read-out: ΔTm Average
# [7] = read-out: Target occupancy Average
# [8] = read-out: Target occupancy Run 1
# [9] = read-out: Target occupancy Run 2
Compound,ΔTm Run 1 (LmxCLK1; [1]) [°C],ΔTm Run 2 (LmxCLK1; [2]) [°C],ΔTm Average (LmxCLK1; [3]) [°C],Target occupancy Run 1 (NLuc::LmxCLK1) [%],Target occupancy Run 2 (NLuc::LmxCLK1) [%],Target occupancy Average (NLuc::LmxCLK1) [%],ΔTm Average (LmxCLK1),ΔTm Run 1 (LmxCLK1),ΔTm Run 2 (LmxCLK1),ΔTm at 10 µM (LmxCLK1; [4]) [°C],ΔTm at 10 µM (LmxCLK1; [5]) [°C],ΔTm at 10 µM (LmxCLK1; [6]) [°C],receptor occupancy at 10 µM (NLuc::LmxCLK1; [7]) [%],receptor occupancy at 10 µM (NLuc::LmxCLK1; [8]) [%],receptor occupancy at 10 µM (NLuc::LmxCLK1; [9]) [%]
COc1ccc(Cl)cc1NC(=O)Nc1cc(C)nc2ccccc12 [PQ 401],0.0,-0.2,-0.1,-4.0,1.2,-1.4,,,,,,,,,
O=C(NOCC1CC1)c1ccc(F)c(F)c1Nc1ccc(I)cc1Cl [PD184352 (CI-1040)],0.1,0.1,0.1,-2.3,-19.9,-11.1,,,,,,,,,
CNc1nc(Nc2cnn([C@H]3CCN(C4COC4)C[C@@H]3F)c2Cl)ncc1C(F)(F)F [GNE-9605],,,,3.1,-5.2,-1.1,-0.4,-0.2,-0.5,,,,,,
O=C1Nc2ccc(I)cc2/C1=C/c1cc(Br)c(O)c(Br)c1 [GW5074],0.0,-0.4,-0.2,-7.5,-6.2,-6.8,,,,,,,,,
CC(C)N(CCC(=O)c1ccc2ccccc2c1)Cc1ccccc1.Cl [ZM 39923 HCl],0.0,-0.3,-0.2,0.2,-18.8,-9.3,,,,,,,,,
COC(=O)c1ccc2c(c1)NC(=O)/C2=C(\Nc1ccc(N(C)C(=O)CN2CCN(C)CC2)cc1)c1ccccc1 [Nintedanib (BIBF 1120)],0.3,0.2,0.2,-1.8,-11.3,-6.6,,,,,,,,,
COc1cc(Nc2c(C#N)cnc3cc(OCCCN4CCN(C)CC4)c(OC)cc23)c(Cl)cc1Cl [Bosutinib (SKI-606)],0.5,0.6,0.5,7.7,-36.0,-14.2,,,,,,,,,
Cc1[nH]c2ccccc2c1C1=C(NCCc2ccc(F)cc2)C(=O)N(C)C1=O [IM-12],,,,-0.3,-14.5,-7.4,-0.2,-0.2,-0.3,,,,,,
NC(=O)c1cccc(-c2cc(Nc3ccc(OC(F)(F)F)cc3)ncn2)c1 [GNF-2],,,,-8.5,-14.2,-11.3,-0.2,-0.2,-0.3,,,,,,
COc1ccc(Cl)c(Nc2nc3ccccc3nc2NS(=O)(=O)c2cccc(NC(=O)C(C)(C)N)c2)c1 [XL147],,,,,,,,,,-0.1,0.8,0.4,-5,-8.3,-1.7
Nc1ncnc2c1c(-c1cnc3[nH]ccc3c1)nn2C1CCCC1 [PP121],0.9,0.7,0.8,-0.4,-14.8,-7.6,,,,,,,,,
CC(C)(C)n1nc(-c2ccc(Cl)cc2)c2c(N)ncnc21 [PP2],,,,-3.1,0.5,-1.3,0 °C,0.2 °C,-0.2,,,,,,
COc1cc(N2CCC(N)CC2)ccc1Nc1ncc(Cl)c(-c2c[nH]c3ccccc23)n1 [AZD3463],0.6,0.3,0.4,8.0,-12.9,-2.4,,,,,,,,,
Cc1cnc(NC(=O)Nc2cc(Br)c(C)cc2OC[C@@H]2CNCCO2)cn1 [LY2603618],,,,,,,,,,0,-0.4,-0.2,-11.8,7,-30.5
CCS(=O)(=O)c1cccc(-c2cc(C(=O)NC3CCN(C)CC3)c(C)c3[nH]c4ncc(C)cc4c23)c1 [TAK-901],,,,,,,,,,1.5,1.1,1.3,-5.9,-2.7,-9.1
Cn1cnc(N)c2ncnc1-2 [3-Methyladenine],,,,,,,,,,0.2,0,0.1,-2.2,2.8,-7.1
Cc1ccccc1CN1C(=O)C2=C(CCN(Cc3ccccc3)C2)N2CCN=C12 [TIC10],,,,4.1,-6.1,-1.0,0.2 °C,0.2 °C,0.2 °C,,,,,,
Cl.O=S(=O)(c1cccc2cnccc12)N1CCCNCC1 [Fasudil (HA-1077) HCl],0.9,0.6,0.7,6.9,-10.2,-1.7,,,,,,,,,
O=c1cc(-c2cccc3c2Sc2ccccc2S3)oc(N2CCOCC2)c1 [KU-55933 (ATM Kinase Inhibitor)],0.6,0.2,0.4,4.0,-21.9,-9.0,,,,,,,,,
Cn1cc(C2=C(c3ccc(Cl)cc3Cl)C(=O)NC2=O)c2ccccc21 [SB216763],,,,,,,,,,0.1,-0.1,0,-4.4,0.9,-9.6
O=C(/C=C/c1ccc(O)c(O)c1)c1ccc(O)cc1O [Butein],,,,,,,,,,0,0.4,0.2,-10.8,3.3,-25
O=C(Nc1nc2cccc(-c3ccc(CN4CCS(=O)(=O)CC4)cc3)n2n1)C1CC1 [Filgotinib (GLPG0634)],,,,,,,,,,0.2,-0.4,-0.1,-15.3,-9.1,-21.6
